# Measurements taken from patent publication US20220110910A1, “CANNABINOID-CONTAINING COMPLEX MIXTURES FOR THE TREATMENT OF CYTOKINE RELEASE SYNDROME WHILE PRESERVING KEY ANTI-VIRAL IMMUNE REACTIONS” (GBS Global BioPharma, Inc., priority 2020, published 2022).
# Experiments:
# Type in all cases: cell-based, human
# monocytes [1] = assay: IL-1β ELISA in supernatants of LPS-stimulated PBMC
# Description: (§1) In immunological activity experiments, PBMC suspensions were pre-treated with cannabinoid and/or terpene compounds for 30 minutes before treatment with designated stimuli, cultured in 96 well tissue culture plates, and incubated at 37° C. and 5.0% CO2. In pDC experiments, cell suspensions were stimulated with CpG-ODN Type A 2216 (15 μg/mL) (InvivoGen©, San Diego, Calif.) following treatment with cannabinoids. Golgi transport inhibitors Monensin (2 μM)/Brefeldin A (3.0 μg/mL) (Thermo Fisher Scientific, Waltham, Mass.) were added to culture 3 hours post-stimulation, and after 7 hours of stimulation cells were harvested for evaluation by flow cytometry for IFNα and TNFα. In monocyte experiments, cell suspensions were stimulated with 1000 ng/mL LPS (S. typhosa, Sigma Aldrich, St. Louis, Mo.) for 18 hours before harvesting supernatants for IL-1β, Golgi blocked for 6 hours before harvesting cells for assessment of IL-6, or cultured for 48 hours before harvesting cells for assessment of HLA-DR, CD80, and CD86. In phagocytosis experiments, cell suspensions were treated with 3.0 mg/mL of pHrodo Green BioParticles (Thermo Fisher). In T cell experiments, cells were plated on 96 well tissue culture plates pre-coated with 5.0 μg/mL anti-CD3 (clone UCHT1, Biolegend, San Diego, Calif.) and stimulated with 5.0 μg/mL anti-CD28 (clone 28.2, Biolegend) and supplemented with 5.0 ng/mL IL-2 (Roche Applied Science, Indianapolis, Ind.). CD25 and CD69 were assessed by flow cytometry 24 hours post-stimulation. In proliferation experiments, cell suspensions were incubated with CFSE Cell Division Tracker (Biolegend) according to manufacturer protocols, harvested 4 days post-stimulation and assessed by flow cytometry. Cell suspensions were further stimulated with 50 ng/mL phorbol 12-myristate 13-acetate (PMA) and 1000 ng/mL ionomycin (Io) at 4 days post-stimulation for 18 hours, Golgi blocked for 6 hours, and harvested for IL-4 and IFNγ assessment by flow cytometry.
# To quantify IL-1β produced by monocytes, supernatants were collected from LPS stimulated cell suspensions after 18 hours and frozen at −80° C. ELISA MAX from Biolegend was used as per manufacturer protocol to quantify IL-1β to a sensitivity of […].
# PBMC = assay: Immune modulation survey of single compounds (all functional responses); conditions: 0.001-10 μM
# Description: In immunological activity experiments, PBMC suspensions were pre-treated with cannabinoid and/or terpene compounds for 30 minutes before treatment with designated stimuli, cultured in 96 well tissue culture plates, and incubated at 37° C. and 5.0% CO2. In pDC experiments, cell suspensions were stimulated with CpG-ODN Type A 2216 (15 μg/mL) (InvivoGen©, San Diego, Calif.) following treatment with cannabinoids. Golgi transport inhibitors Monensin (2 μM)/Brefeldin A (3.0 μg/mL) (Thermo Fisher Scientific, Waltham, Mass.) were added to culture 3 hours post-stimulation, and after 7 hours of stimulation cells were harvested for evaluation by flow cytometry for IFNα and TNFα. […] CD25 and CD69 were assessed by flow cytometry 24 hours post-stimulation. In proliferation experiments, cell suspensions were incubated with CFSE Cell Division Tracker (Biolegend) according to manufacturer protocols, harvested 4 days post-stimulation and assessed by flow cytometry. […]
# In brief, pDC, monocyte and T cell were identified using antibodies directed against unique epitopes for each cell type and analyzed by flow cytometry. […] For intracellular staining, fixed cells were permeabilized in BD Permwash and incubated with appropriate antibodies and 7% human AB serum. pDC were identified as CD303+and assessed for intracellular IFNα and TNFα. […]
# CD4+ T cells [2] = assay: Intracellular IFNγ and IL-4 after anti-CD3/anti-CD28 stimulation and PMA/ionomycin; conditions: 0.001 μM; vs vehicle
# Description: as §1
# (§2) In brief, pDC, monocyte and T cell were identified using antibodies directed against unique epitopes for each cell type and analyzed by flow cytometry. Cells were fixed in BD CytoFix and resuspended in FACS buffer for extracellular staining. […] For intracellular staining, fixed cells were permeabilized in BD Permwash and incubated with appropriate antibodies and 7% human AB serum. pDC were identified as CD303+and assessed for intracellular IFNα and TNFα. Monocytes were identified as CD14+ and assessed for extracellular HLA-DR, CD80, CD86, and intracellular TNFα and IL-6. […] T cells were identified as CD3+ and T cell subsets identified by CD4+ and CD8+ and assessed for extracellular CD25 and CD69 and intracellular IFNγ and IL-4. […]
# CD8+ T cells [3] = assay: Intracellular IFNγ after anti-CD3/anti-CD28 stimulation and PMA/ionomycin; conditions: 0.001 μM; vs vehicle
# Description: as §1, §2
# CD8+ T cells [4] = assay: T cell proliferation (CFSE, FlowJo Proliferation tool); conditions: 0.01 μM
# Description: as §1, §2
# CD4+ T cells [5] = assay: as above; conditions: 0.01 μM
# Description: as §1, §2
# [6] = test system: plasmacytoid dendritic cells (pDC); assay: IFNα and TNFα in pDC of PBMC stimulated with CpG-ODN (intracellular staining); conditions: vs vehicle; for IFNα production by pDC: 0.01, 0.1, and 1.0 μM
# Description: as §1
# (§3) In brief, pDC, monocyte and T cell were identified using antibodies directed against unique epitopes for each cell type and analyzed by flow cytometry. Cells were fixed in BD CytoFix and resuspended in FACS buffer for extracellular staining. To determine the changes in cell viability in mixed PBMC, gates were first set on singlet events, then CD45+ cells, then populations identified by CD3+ (T cells) and CD14+ (monocytes), and then 7-AAD- for viability. Likewise, for pDC viability experiments, pDC were identified as CD303+ and viable by exclusion of Near IR L/D stain (Life Technologies, Carlsbad, Calif.). For intracellular staining, fixed cells were permeabilized in BD Permwash and incubated with appropriate antibodies and 7% human AB serum. pDC were identified as CD303+and assessed for intracellular IFNα and TNFα. Monocytes were identified as CD14+ and assessed for extracellular HLA-DR, CD80, CD86, and intracellular TNFα and IL-6. In phagocytosis experiments, PBMC were identified as CD45+ and monocytes were identified based on side scatter and then phagocytosing monocytes. T cells were identified as CD3+ and T cell subsets identified by CD4+ and CD8+ and assessed for extracellular CD25 and CD69 and intracellular IFNγ and IL-4. To analyze T cell proliferation, FlowJo 10.0 proliferation tool was used by setting the undivided peak of CFSE stained cells in each sample.
# monocytes [7] = assay: Co-stimulatory markers HLA-DR, CD80, CD86 on monocytes after LPS; conditions: 2 days
# Description: as §1, §3
# monocytes [8] = assay: TNFα+ monocytes after CpG-ODN stimulation (intracellular staining); conditions: 10 μM; CpG-ODN 15 μg/mL, 6 hours; vs vehicle
# Description: FIGS. 9A-9B reveal the TNFα decreasing potential of cannabinol (CBN). […] PBMC were isolated from human peripheral blood and pre-treated with the indicated concentrations of cannabinol for 30 minutes, followed by stimulation with 15 μg/mL CpG-ODN for 6 hours (FIG. 9A). Cells were non-enzymatically released from culture plates and assessed for the percentage of TNFα+ monocytes (FIG. 9A) by intracellular staining. For FIG. 9B, PBMC were isolated from human peripheral blood and pre-treated with the indicated concentrations of cannabinol for 30 minutes, followed by treatment with 3.0 mg/mL of pHrodo Green BioParticles (FIG. 9B). In FIG. 9B, cells were treated with 3.0 mg/mL of pHrodo Green BioParticles and assessed for phagocytosis monocytes by flow cytometry within 2 hours. Data are normalized to each donor's vehicle control when appropriate and presented as mean±SEM. N=4-6 donors per treatment group. […] *p<0.05 when compared to VH (FIG. 9A), or **p<0.01 when compared to VH (FIG. 9B), by repeated measure one-way ANOVA with Dunnett's posttest.
# as §2
# CD4+ T cells [9] = assay: T cell activation markers CD25 and CD69, 24 hours post-stimulation; conditions: concentration not given
# Description: as §1, with “In T cell experiments, cells were plated on 96 well tissue culture plates pre-coated with 5.0 μg/mL anti-CD3 (clone UCHT1, Biolegend, San Diego, Calif.) and stimulated with 5.0 μg/mL anti-CD28 (clone 28.2, Biolegend) and supplemented with 5.0 ng/mL IL-2 (Roche Applied Science, Indianapolis, Ind.).” left out, “Cell suspensions were further stimulated with 50 ng/mL phorbol 12-myristate 13-acetate (PMA) and 1000 ng/mL ionomycin (Io) at 4 days post-stimulation for 18 hours, Golgi blocked for 6 hours, and harvested for IL-4 and IFNγ assessment by flow cytometry.” left out
# as §2, with “cytometry.” for “cytometry. Cells were fixed in BD CytoFix and resuspended in FACS buffer for extracellular staining.”
# [10] = indicated concentrations (0.001-10 μM)
compound,measurement,setting,value
C=CC(C)(O)CCC=C(C)C (centres unmarked) [Linalool],IL-1β secretion in monocytes,"monocytes [1]; 0.001 μM, LPS 1000 ng/mL, vs vehicle",significantly increased
same,IL-1β production,"monocytes [1]; any other concentration (tested 0.001-10 μM, other than 0.001 μM)",did not exhibit any effects
same,any other immunological functional responses measured in the immune modulation survey,PBMC,did not have any statistically significant effects
"C/C(=C\CO)CCC[C@H](C)CCC[C@H](C)CCCC(C)C [Phytol A, phytol]",IFNγ in CD4+ T cells,CD4+ T cells [2],significantly decreased
same,IFNγ in CD8+ T cells,CD8+ T cells [3],not statistically significant
"CCCCCc1cc(O)c2c(c1)OC(C)(C)[C@@H]1CCC(C)=C[C@@H]21 [THC, (6aR,10aR)-delta-9-tetrahydrocannabinol, reference compound]",proliferation of CD8+ T cells,CD8+ T cells [4],significantly increased
same,proliferation of CD4+ T cells,CD4+ T cells [5],significantly increased
same,IFNα in plasmacytoid dendritic cells (pDC),"[6]; 10 μM, CpG-ODN 15 μg/mL",significantly decreased
same,TNFα in plasmacytoid dendritic cells (pDC),"[6]; 10 μM, CpG-ODN 15 μg/mL",significantly decreased
same,CD80+ co-stimulatory marker in monocytes,"monocytes [7]; 10 μM, vs vehicle",significantly decreased
same,CD86+ co-stimulatory marker in monocytes,monocytes [7]; [10],did not cause a statistically significant change
same,HLA-DR+ co-stimulatory marker in monocytes,monocytes [7]; [10],did not cause a statistically significant change
same,IL-1β in monocytes,"monocytes [1]; 10 μM, LPS 1000 ng/mL, vs vehicle",significantly decreased
same,TNFα in monocytes,monocytes [8],significantly decreased
"C=CC(C)(O)CC/C=C(\C)CCC=C(C)C (stereo not drawn) [trans-nerolidol, trans nerolidol]",% CD25+ in CD4+ T cells (activation marker),CD4+ T cells [9],increased
same,IL-1β in monocytes,"monocytes [1]; 0.01 μM, LPS 1000 ng/mL, vs vehicle",enhanced
same,IL-1β in monocytes,"monocytes [1]; 0.01 μM, LPS 1000 ng/mL, vs vehicle, listed as tN",significantly increased
"CC1=CCC2CC1C2(C)C (stereo not drawn) [α-Pinene, α-pinene]",IFNα production by pDC,[6]; CpG-ODN,significantly suppressed
same,IFNα production by pDC,"[6]; CpG-ODN, listed as Alpha-Pinene",significantly decreased
same,TNFα production by pDC,"[6]; 0.1 and 1.0 μM, CpG-ODN",significantly suppressed
